Test results taken from ChEMBL document CHEMBL6127071, “Albusamides A-G: Hydroxylated Fatty Amine Derivatives from the Deep-Sea-Derived Actinomycete Streptomyces albus 228DD-066 and Their Cytotoxic Activity” (2024).
Counter-ions that a name gives are not always drawn.

Assays:
Format in all cases: functional
[1] = system: NALM-6; assay: Growth inhibition of human NALM-6 cells assessed as reduction in cell viability measured after 48 hrs by SRB method
[2] = Growth inhibition of human MRC9 cells assessed as reduction in cell viability measured after 48 hrs by SRB method
[3] = system: MDA-MB-231; assay: Growth inhibition of human MDA-MB-231 cells assessed as reduction in cell viability measured after 48 hrs by SRB method
[4] = system: K562; assay: Growth inhibition of human K562 cells assessed as reduction in cell viability measured after 48 hrs by SRB method
[5] = system: NCI-H23; assay: Growth inhibition of human NCI-H23 cells assessed as reduction in cell viability measured after 48 hrs by SRB method
[6] = system: Raji; assay: Growth inhibition of human Raji cells assessed as reduction in cell viability measured after 48 hrs by SRB method
[7] = system: U-266; assay: Growth inhibition of human U-266 cells assessed as reduction in cell viability measured after 48 hrs by SRB method
[8] = system: RPMI 8402; assay: Growth inhibition of human RPMI 8402 cells assessed as reduction in cell viability measured after 48 hrs by SRB method
[9] = system: ACHN; assay: Growth inhibition of human ACHN cells assessed as reduction in cell viability measured after 48 hrs by SRB method
[10] = system: HL-60; assay: Growth inhibition of human HL-60 cells assessed as reduction in cell viability measured after 48 hrs by SRB method
[11] = system: PC-3; assay: Growth inhibition of human PC-3 cells assessed as reduction in cell viability measured after 48 hrs by SRB method
[12] = Growth inhibition of human RPMI-1788 cells assessed as reduction in cell viability measured after 48 hrs by SRB method
[13] = system: WSUDLCL2; assay: Growth inhibition of human WSUDLCL2 cells assessed as reduction in cell viability measured after 48 hrs by SRB method
[14] = system: HCT-15; assay: Growth inhibition of human HCT-15 cells assessed as reduction in cell viability measured after 48 hrs by SRB method
[15] = system: NUGC-3; assay: Growth inhibition of human NUGC-3 cells assessed as reduction in cell viability measured after 48 hrs by SRB method

Row | GI50 [3] [µM] | GI50 [4] [µM] | GI50 [5] [µM] | GI50 [6] [µM] | GI50 [9] [µM] | GI50 [10] [µM] | GI50 [11] [µM] | GI50 [14] [µM] | Structure (SMILES) | GI50 [1] [µM] | GI50 [2] [µM] | GI50 [7] [µM] | GI50 [8] [µM] | GI50 [12] [µM] | GI50 [13] [µM] | GI50 [15] [µM]
1 | 4.7 | > 30 | 5.3 | > 30 | 5.7 | > 30 | 5.1 | 4.6 | CC[C@@H](O)CCCCCCCCCNC(C)=O | > 30 | 5.3 | > 30 | > 30 | 4.7 | 14 | 3.9
2 | 7.5 | > 30 | 7.2 | > 30 | 6.4 | > 30 | 7.3 | 5.8 | CC(=O)NCCCCCCCCC[C@@H](O)[C@H](C)O | > 30 | 6.7 | > 30 | > 30 | 17 | > 30 | 6.6
3 | 2 | > 30 | 1.9 | > 30 | 1.6 | > 30 | 1.7 | 2.1 | CC(=O)NCCCCCCCCC[C@@H](O)[C@@H](C)O | > 30 | 2 | > 30 | > 30 | 3.1 | 8.3 | 1.4
4 | 2.6 | 19 | 2.1 | > 30 | 2.3 | 15 | 2 | 2.6 | CC(=O)NCCCCCCCCCO | 18 | 2.8 | > 30 | 4.4 | 0.5 | 1.3 | 1.5
5 | 18 | > 30 | 18 | > 30 | 16 | > 30 | 19 | 15 | CC(=O)NCCCCCCCCCC(=O)CCO | > 30 | 20 | > 30 | > 30 | 28 | > 30 | 17
6 | > 30 | > 30 | > 30 | > 30 | > 30 | > 30 | > 30 | > 30 | CC(=O)CCCCCCCCCCNC(C)=O | > 30 | > 30 | > 30 | > 30 | > 30 | > 30 | > 30
7 | 4.6 | 28 | 4.6 | > 30 | 5.8 | > 30 | 5.5 | 5.4 | CC(=O)NCCCCCCCCC[C@@H](O)CCO | > 30 | 4 | > 30 | 25 | 2.9 | 5.6 | 3
8 | 0.5 | 1.5 | 0.5 | 26 | 0.5 | 1.3 | 0.5 | 0.5 | CC(=O)NCCCCCCCCCC[C@H](O)CO | 1.5 | 0.6 | > 30 | 0.6 | 0.1 | 0.2 | 0.4
9 | 20 | > 30 | 22 | > 30 | 23 | > 30 | 19 | 16 | CC(=O)NCCCCCCCCCC[C@@H](C)O | > 30 | 19 | > 30 | > 30 | > 30 | > 30 | 19
10 | > 30 | > 30 | > 30 | 19 | > 30 | > 30 | > 30 | > 30 | CCC(=O)CCCCCCCCCNC(C)=O | > 30 | > 30 | > 30 | > 30 | > 30 | > 30 | > 30
11 | 1.1 | 11 | 1 | 0.4 | 1.1 | 7.9 | 0.8 | 1.1 | CC(=O)CCCCCCCCNC(C)=O | 9.2 | 1.1 | > 30 | 2.5 | 0.4 | 0.8 | 0.7
12 | 0.077 | 0.007 | 0.072 | 0.008 | 0.081 | 0.002 | 0.085 | 0.087 | COc1cccc2c1C(=O)c1c(O)c3c(c(O)c1C2=O)C[C@@](O)(C(=O)CO)C[C@@H]3O[C@H]1C[C@H](N)[C@H](O)[C@H](C)O1 [DOXORUBICIN HYDROCHLORIDE] | 0.003 | 0.08 | 0.004 | 0.01 | 0.007 | 0.004 | 0.093
